Laboratory results: the Kinase Knowledgebase extract (Sharma et al. 2016)

Each molecule was assayed against EGFR (UniProt P00533).
Sequence of EGFR (P00533 whole entry, looked up): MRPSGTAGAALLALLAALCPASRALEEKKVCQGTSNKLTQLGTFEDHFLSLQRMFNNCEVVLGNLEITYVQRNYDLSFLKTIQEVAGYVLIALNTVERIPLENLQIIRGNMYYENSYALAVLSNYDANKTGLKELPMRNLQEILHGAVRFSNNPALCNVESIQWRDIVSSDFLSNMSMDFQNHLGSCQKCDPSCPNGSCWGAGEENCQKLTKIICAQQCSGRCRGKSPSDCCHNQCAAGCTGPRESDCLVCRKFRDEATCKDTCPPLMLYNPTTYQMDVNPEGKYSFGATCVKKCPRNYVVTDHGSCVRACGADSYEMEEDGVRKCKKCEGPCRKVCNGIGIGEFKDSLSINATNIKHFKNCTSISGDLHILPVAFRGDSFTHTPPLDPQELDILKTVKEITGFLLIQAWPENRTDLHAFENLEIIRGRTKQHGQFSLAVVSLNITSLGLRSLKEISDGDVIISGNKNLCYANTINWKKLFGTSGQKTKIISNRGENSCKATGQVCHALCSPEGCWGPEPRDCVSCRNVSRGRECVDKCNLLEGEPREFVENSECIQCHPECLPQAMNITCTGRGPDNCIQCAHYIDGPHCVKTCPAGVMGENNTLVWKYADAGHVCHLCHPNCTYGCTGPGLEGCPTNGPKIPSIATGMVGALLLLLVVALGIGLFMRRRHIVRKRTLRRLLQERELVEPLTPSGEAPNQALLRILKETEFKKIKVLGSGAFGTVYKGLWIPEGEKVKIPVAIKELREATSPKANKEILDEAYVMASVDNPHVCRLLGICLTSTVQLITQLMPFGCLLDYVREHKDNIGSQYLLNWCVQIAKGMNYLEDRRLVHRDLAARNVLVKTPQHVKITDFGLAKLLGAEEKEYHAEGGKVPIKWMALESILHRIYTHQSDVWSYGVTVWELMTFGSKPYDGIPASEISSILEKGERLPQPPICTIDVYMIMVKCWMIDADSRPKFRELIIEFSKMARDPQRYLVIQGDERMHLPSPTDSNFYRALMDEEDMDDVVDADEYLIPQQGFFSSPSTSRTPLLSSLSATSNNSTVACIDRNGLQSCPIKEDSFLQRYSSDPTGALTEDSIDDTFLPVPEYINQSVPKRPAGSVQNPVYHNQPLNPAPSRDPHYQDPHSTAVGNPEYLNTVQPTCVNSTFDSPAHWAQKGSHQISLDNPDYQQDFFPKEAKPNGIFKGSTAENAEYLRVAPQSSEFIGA

Compound	IC50
CCN1CCC(Nc2ccc3c(c2)/C(=C(\c2ccc([N+](=O)[O-])cc2)c2nc4ccccc4[nH]2)C(=O)N3)CC1	500 to 5000 nM
COCCN1CCC(Nc2ccc3c(c2)/C(=C(\c2ccc(OC)cc2)c2ncc[nH]2)C(=O)N3)CC1	> 5000 nM
COCCN1CCC(Nc2ccc3c(c2)/C(=C(\c2cccc(F)c2)c2ncn[nH]2)C(=O)N3)CC1	> 5000 nM
COCCN1CCC(Nc2ccc3c(c2)/C(=C(\c2ccc(C(F)(F)F)cc2)c2ncc[nH]2)C(=O)N3)CC1	> 5000 nM
CCN1CCC(Nc2ccc3c(c2)/C(=C(\c2ccc(C(F)(F)F)c(F)c2)c2nc(C)c[nH]2)C(=O)N3)CC1	< 50 nM
CCN1CCC(Oc2ccc3c(c2)/C(=C(\c2cccc(Cl)c2)c2ncc[nH]2)C(=O)N3)CC1	500 to 5000 nM
O=C1Nc2ccc(NC3CCN(CCN4CCCC4)CC3)cc2/C1=C(\c1cccc(F)c1)c1ncc[nH]1	> 5000 nM
CCN1CCC(Nc2ccc3c(c2)/C(=C(\c2cc(F)cc(F)c2)c2ncc[nH]2)C(=O)N3)CC1	50 to 500 nM
COCCN1CCC(Nc2ccc3c(c2)/C(=C(\c2ccc(C(F)(F)F)c(F)c2)c2ncc[nH]2)C(=O)N3)CC1	> 5000 nM
CCN1CCC(Nc2ccc3c(c2)/C(=C(\c2ccc(C)cc2)c2nc(C)c[nH]2)C(=O)N3)CC1	50 to 500 nM
COCCN1CCC(Nc2ccc3c(c2)/C(=C(\c2ccc(F)cc2)c2ncc[nH]2)C(=O)N3)CC1	> 5000 nM
CCN1CCC(Nc2ccc3c(c2)/C(=C(/c2ncc[nH]2)c2cccc(F)c2F)C(=O)N3)CC1	50 to 500 nM
CCN1CCC(Oc2ccc3c(c2)/C(=C(\c2ccccc2)c2nc4cc(OC)ccc4[nH]2)C(=O)N3)CC1	500 to 5000 nM
COCCN1CCC(Nc2ccc3c(c2)/C(=C(\c2cc(F)cc(F)c2)c2nc4ccccc4[nH]2)C(=O)N3)CC1	50 to 500 nM
O=C1Nc2ccc(NC3CCN(CCN4CCCCC4)CC3)cc2/C1=C(\c1cccc(F)c1)c1ncc[nH]1	> 5000 nM
CCN1CCC(Nc2ccc3c(c2)/C(=C(\c2cccc(F)c2)c2ncn[nH]2)C(=O)N3)CC1	> 5000 nM
CC1(C)CC(Nc2ccc3c(c2)/C(=C(\c2ccccc2)c2nc4ccccc4[nH]2)C(=O)N3)CC(C)(C)N1	500 to 5000 nM
COCCN1CCC(Nc2ccc3c(c2)/C(=C(\c2ccccc2)c2nc4cc(Cl)ccc4[nH]2)C(=O)N3)CC1	> 5000 nM
COCCN1CCC(Nc2ccc3c(c2)/C(=C(\c2ccc(Cl)cc2)c2ncc[nH]2)C(=O)N3)CC1	> 5000 nM
CCN1CCC(Nc2ccc3c(c2)/C(=C(\c2cccc(C#N)c2)c2nc4ccccc4[nH]2)C(=O)N3)CC1	500 to 5000 nM
CCN1CCC(Nc2ccc3c(c2)/C(=C(\c2ccc(C)c(F)c2)c2nc4ccccc4[nH]2)C(=O)N3)CC1	< 50 nM

Compound	IC50
COCCN1CCC(Nc2ccc3c(c2)/C(=C(\c2cccc(F)c2)c2nc(C)c[nH]2)C(=O)N3)CC1	50 to 500 nM
CCN1CCC(Nc2ccc3c(c2)/C(=C(\c2ccc(C)cc2)c2nc4cc(OC)ccc4[nH]2)C(=O)N3)CC1	500 to 5000 nM
COCCN1CCC(Oc2ccc3c(c2)/C(=C(\c2cc(F)cc(F)c2)c2nc4ccccc4[nH]2)C(=O)N3)CC1	500 to 5000 nM
COCCN1CCC(Nc2ccc3c(c2)/C(=C(\c2ccc(C)c(F)c2)c2nc(C)c[nH]2)C(=O)N3)CC1	< 50 nM
CCN1CCC(Nc2ccc3c(c2)/C(=C(\c2ccc(Cl)cc2)c2nc4ccccc4[nH]2)C(=O)N3)CC1	50 to 500 nM
CCN1CCC(Nc2ccc3c(c2)/C(=C(\c2cccc(N)c2)c2nc4ccccc4[nH]2)C(=O)N3)CC1	500 to 5000 nM
CCN1CCC(Nc2ccc3c(c2)/C(=C(/c2nc(C)c[nH]2)c2cc(F)c(Cl)cc2Cl)C(=O)N3)CC1	50 to 500 nM
CCN1CCC(Nc2ccc3c(c2)/C(=C(\c2ccc(F)c(Cl)c2)c2ncc[nH]2)C(=O)N3)CC1	500 to 5000 nM
CCN1CCC(Nc2ccc3c(c2)/C(=C(\c2cccc([N+](=O)[O-])c2)c2nc4ccccc4[nH]2)C(=O)N3)CC1	500 to 5000 nM
CCN1CCC(Nc2ccc3c(c2)/C(=C(\c2ccc(F)c(Cl)c2)c2nc(C)c[nH]2)C(=O)N3)CC1	50 to 500 nM
CCN1CCC(Nc2ccc3c(c2)/C(=C(\c2cccc(C(=N)N)c2)c2nc4ccccc4[nH]2)C(=O)N3)CC1	500 to 5000 nM
CCN1CCC(Nc2ccc3c(c2)/C(=C(\c2cccc(F)c2)c2nc(-c4ccccc4)c[nH]2)C(=O)N3)CC1	50 to 500 nM
COc1ccc2[nH]c(/C(=C3\C(=O)Nc4ccc(NC5CC(C)(C)NC(C)(C)C5)cc43)c3ccccc3)nc2c1	500 to 5000 nM
CCN1CCC(Nc2ccc3c(c2)/C(=C(\c2cc(F)cc(F)c2)c2nc4cc(F)ccc4[nH]2)C(=O)N3)CC1	50 to 500 nM
CCN1CCC(Nc2ccc3c(c2)/C(=C(\c2cccc(Cl)c2)c2nc4ccccc4[nH]2)C(=O)N3)CC1	50 to 500 nM
CCN1CCCC(Nc2ccc3c(c2)/C(=C(\c2ccccc2)c2nc4cc(OC)ccc4[nH]2)C(=O)N3)C1 (stereo unspecified)	500 to 5000 nM
COCCN1CCC(Nc2ccc3c(c2)/C(=C(\c2cccc(F)c2)c2nc(-c4ccccc4)c[nH]2)C(=O)N3)CC1	50 to 500 nM
COCCN1CCC(Nc2ccc3c(c2)/C(=C(\c2ccc(C)cc2)c2ncc[nH]2)C(=O)N3)CC1	50 to 500 nM
COCCN1CCC(Nc2ccc3c(c2)/C(=C(\c2ccc(C)cc2)c2nc(C)c[nH]2)C(=O)N3)CC1	50 to 500 nM
CCN1CCC(Nc2ccc3c(c2)/C(=C(/c2ncc[nH]2)c2ccc(C(F)(F)F)cc2F)C(=O)N3)CC1	50 to 500 nM
COCCN1CCC(Nc2ccc3c(c2)/C(=C(\c2ccc(C(F)(F)F)nc2)c2ncc[nH]2)C(=O)N3)CC1	> 5000 nM

Compound	IC50
COCCN1CCC(Nc2ccc3c(c2)/C(=C(\c2cccc(Cl)c2)c2nc4ccccc4[nH]2)C(=O)N3)CC1	500 to 5000 nM
CCN1CCC(Nc2ccc3c(c2)/C(=C(\c2ccc(OC)cc2)c2ncc[nH]2)C(=O)N3)CC1	500 to 5000 nM
CCN1CCC(Nc2ccc3c(c2)/C(=C(\c2ccccc2)c2nc(CCN4C(=O)c5ccccc5C4=O)c[nH]2)C(=O)N3)CC1	500 to 5000 nM
CCN1CCC(Nc2ccc3c(c2)/C(=C(\c2cccc(C(F)(F)F)c2)c2nc(C)c[nH]2)C(=O)N3)CC1	500 to 5000 nM
CCCc1ccc(/C(=C2/C(=O)Nc3ccc(NC4CCN(CCOC)CC4)cc32)c2ncc[nH]2)cc1	50 to 500 nM
CS(=O)(=O)N1CCC(Nc2ccc3c(c2)/C(=C(\c2cccc(F)c2)c2ncc[nH]2)C(=O)N3)CC1	> 5000 nM
CCN1CCC(Nc2ccc3c(c2)/C(=C(\c2cccc(C(F)(F)F)c2)c2ncc[nH]2)C(=O)N3)CC1	500 to 5000 nM
Cc1ccc(/C(=C2/C(=O)Nc3ccc(NC4CCN(C)CC4)cc32)c2ncc[nH]2)cc1	50 to 500 nM
CCOC(=O)c1[nH]c(/C(=C2\C(=O)Nc3ccc(NC4CCN(CCOC)CC4)cc32)c2cccc(F)c2)nc1C	> 5000 nM
CCN1CCC(Nc2ccc3c(c2)/C(=C(/c2ncc[nH]2)c2ccccc2F)C(=O)N3)CC1	50 to 500 nM
COCCN1CCC(Oc2ccc3c(c2)/C(=C(\c2cccc(Cl)c2)c2nc4ccccc4[nH]2)C(=O)N3)CC1	50 to 500 nM
COCCN1CCC(Nc2ccc3c(c2)/C(=C(\c2ccccc2)c2ncc[nH]2)C(=O)N3)CC1	> 5000 nM
CCN1CCC(Oc2ccc3c(c2)/C(=C(\c2cccc(OC)c2)c2nc4ccccc4[nH]2)C(=O)N3)CC1	500 to 5000 nM
O=C1Nc2ccc(OC3CCN(Cc4ccccc4)CC3)cc2/C1=C(\c1ccccc1)c1nc2ccccc2[nH]1	500 to 5000 nM
CN(C)CCN1CCC(Nc2ccc3c(c2)/C(=C(\c2ccccc2)c2nc4ccccc4[nH]2)C(=O)N3)CC1	500 to 5000 nM
CCN1CCC(Nc2ccc3c(c2)/C(=C(/c2nc(C)c[nH]2)c2ccc(C(F)(F)F)cc2F)C(=O)N3)CC1	50 to 500 nM
CCN1CCC(Nc2ccc3c(c2)/C(=C(\c2ccc(F)cc2)c2nc(C)c[nH]2)C(=O)N3)CC1	50 to 500 nM
CCN1CCC(Nc2ccc3c(c2)/C(=C(\c2ccc(F)cc2)c2ncc[nH]2)C(=O)N3)CC1	500 to 5000 nM
COCCN1CCC(Nc2ccc3c(c2)/C(=C(\c2cccc(OC)c2)c2nc4ccccc4[nH]2)C(=O)N3)CC1	500 to 5000 nM
CCN1CCC(Oc2ccc3c(c2)/C(=C(\c2cccc(Cl)c2)c2nc4ccccc4[nH]2)C(=O)N3)CC1	500 to 5000 nM
CCN1CCC(Nc2ccc3c(c2)/C(=C(\c2ccc(C(F)(F)F)cc2)c2ncc[nH]2)C(=O)N3)CC1	500 to 5000 nM

Compound	IC50
CCN1CCC(Nc2ccc3c(c2)/C(=C(/c2nc(C)c[nH]2)c2ccc(Cl)cc2F)C(=O)N3)CC1	< 50 nM
COCCN1CCC(Nc2ccc3c(c2)/C(=C(\c2cc(F)cc(F)c2)c2nc(C)c[nH]2)C(=O)N3)CC1	50 to 500 nM
COCCN1CCC(Nc2ccc3c(c2)/C(=C(\c2cccc(F)c2)c2ncc[nH]2)C(=O)N3)CC1	50 to 500 nM
O=C1Nc2ccc(NC3CCNCC3)cc2/C1=C(\c1ccccc1)c1nc2ccccc2[nH]1	500 to 5000 nM
COCCN1CCC(Nc2ccc3c(c2)/C(=C(\c2ccc(F)cc2)c2nc4ccccc4[nH]2)C(=O)N3)CC1	500 to 5000 nM
CCN1CCC(Nc2ccc3c(c2)/C(=C(/c2ncc[nH]2)c2ccc(F)cc2F)C(=O)N3)CC1	50 to 500 nM
O=C1Nc2ccc(NC3CC4CCC(C3)N4)cc2/C1=C(\c1ccccc1)c1nc2ccccc2[nH]1 (stereo unspecified)	500 to 5000 nM
COCCN1CCC(Nc2ccc3c(c2)/C(=C(\c2ccc(F)c(Cl)c2)c2ncc[nH]2)C(=O)N3)CC1	> 5000 nM
CCN1CCC(Nc2ccc3c(c2)/C(=C(\c2ccc(F)cc2)c2nc4ccccc4[nH]2)C(=O)N3)CC1	500 to 5000 nM
CCN1CCC(Nc2ccc3c(c2)/C(=C(\c2ccc(F)c(F)c2)c2ncc[nH]2)C(=O)N3)CC1	500 to 5000 nM
CCN1CCC(N(C)c2ccc3c(c2)/C(=C(\c2cccc(Cl)c2)c2nc4ccccc4[nH]2)C(=O)N3)CC1	500 to 5000 nM
CCN(CC)CCN1CCC(Nc2ccc3c(c2)/C(=C(\c2cccc(F)c2)c2ncc[nH]2)C(=O)N3)CC1	> 5000 nM
CCN1CCC(Oc2ccc3c(c2)/C(=C(\c2cc(F)cc(F)c2)c2nc4ccccc4[nH]2)C(=O)N3)CC1	500 to 5000 nM
CCN1CCC(Nc2ccc3c(c2)/C(=C(\c2ccc(C(F)(F)F)c(F)c2)c2ncc[nH]2)C(=O)N3)CC1	50 to 500 nM
CS(=O)(=O)N1CCC(Nc2ccc3c(c2)/C(=C(\c2ccccc2)c2nc4ccccc4[nH]2)C(=O)N3)CC1	500 to 5000 nM
CCN1CCC(Nc2ccc3c(c2)/C(=C(\c2ccc(C(F)(F)F)nc2)c2ncc[nH]2)C(=O)N3)CC1	> 5000 nM
COCCN1CCC(Nc2ccc3c(c2)/C(=C(\c2ccc(C)c(F)c2)c2ncc[nH]2)C(=O)N3)CC1	50 to 500 nM
CCN1CCC(Nc2ccc3c(c2)/C(=C(\c2ccc(C)c(F)c2)c2nc(C)c[nH]2)C(=O)N3)CC1	< 50 nM
